Data as given in patent US20120270237A9, “METHODS FOR THE IDENTIFICATION OF KINASE INTERACTING MOLECULES AND FOR THE PURIFICATION OF KINASE PROTEINS” (Cellzone AG, priority 2009, published 2012).

Experiments:
Assay in all cases: Kinobeads competition binding, HL60 cell lysate
Parameters in all cases: endogenous in cells
Settings in all cases: 10 μM free compound
MAP3K1 = MAP3K1 (Homo sapiens, UniProt Q13233)
Description: (§1) To one aliquot of cell lysate 10 μM of the free compound (FIG. 3, CZC31326) was added and allowed to bind to proteins in the lysate. Then the affinity matrix with the immobilized compound (Example 1) was added to capture proteins that were not interacting with the previously added free compound. Beads were separated from the lysate and bead bound proteins were eluted in SDS sample buffer and subsequently separated by SDS-Polyacrylamide gel electrophoresis (FIG. 4). Suitable gel bands were cut out and subjected to in-gel proteolytic digestion with trypsin. The second lysate aliquot was processed identically, however no free compound was added (DMSO solvent control). Peptides originating from samples 1 and 2 were labeled with iTRAQ reagents (iTRAQ 114 and iTRAQ 117) and the combined samples were analyzed with a nano-flow liquid chromatography system coupled online to a tandem mass spectrometer (LC-MS/MS) experiment followed by iTRAQ reporter ion quantification in the MS/MS spectra (Ross et al., 2004. Mol. Cell. Proteomics 3(12):1154-1169). Further experimental protocols can be found in WO2006/134056 and a previous publication (Bantscheff et al., 2007. Nature Biotechnology 25, 1035-1044). Sepharose-beads with the immobilized compound (100 μl beads per pull-down experiment) were equilibrated in lysis buffer and incubated with a cell lysate sample containing 50 mg of protein on an end-over-end shaker (Roto Shake Genie, Scientific Industries Inc.) for 2 hours at 4° C. Beads were collected, transferred to Mobicol-columns (MoBiTech 10055) and washed with 10 ml lysis buffer containing 0.4% NP40 detergent, followed by 5 ml lysis buffer containing 0.2% detergent. To elute bound proteins, 60 μl 2×SDS sample buffer was added to the column. The column was incubated for 30 minutes at 50° C. and the eluate was transferred to a siliconized microfuge tube by centrifugation. Proteins were then alkylated with 108 mM iodoacetamid. Proteins were then separated by SDS-Polyacrylamide electrophoresis (SDS-PAGE). The peptide extracts of samples treated with 10 μM of free compound (CZC31326) and the solvent control (0.5% DMSO) were treated with different variants of the isobaric tagging reagent (iTRAQ Reagents Multiplex Kit, part number 4352135, Applied Biosystems, Foster City, Calif., USA). The iTRAQ reagents are a set of multiplexed, amine-specific, stable isotope reagents that can label peptides on amino groups in up to four different biological samples enabling simultaneous identification and quantitation of peptides. The iTRAQ reagents were used according to instructions provided by the manufacturer. The samples were resuspended in 10 μl 50 mM TEAB solution, pH 8.5 and 10 μl ethanol were added. The iTRAQ reagent was dissolved in 120 μl ethanol and 10 μl of reagent solution were added to the sample. The labeling reaction was performed at room temperature for one hour on a horizontal shaker and stopped by adding 5 μl of 100 mM TEAB and 100 mM glycine in water. The two labeled sampled were then combined, dried in a vacuum centrifuge and resuspended in 10 μl of 0.1% formic acid in water. Relative protein quantitation was performed using peak areas of iTRAQ reporter ion signals essentially as described in an earlier publication (Bantscheff et al., 2007. Nature Biotechnology 25, 1035-1044).

JNK2 = JNK2 (Homo sapiens, UniProt P45984)
Chain of JNK2 (P45984 whole entry): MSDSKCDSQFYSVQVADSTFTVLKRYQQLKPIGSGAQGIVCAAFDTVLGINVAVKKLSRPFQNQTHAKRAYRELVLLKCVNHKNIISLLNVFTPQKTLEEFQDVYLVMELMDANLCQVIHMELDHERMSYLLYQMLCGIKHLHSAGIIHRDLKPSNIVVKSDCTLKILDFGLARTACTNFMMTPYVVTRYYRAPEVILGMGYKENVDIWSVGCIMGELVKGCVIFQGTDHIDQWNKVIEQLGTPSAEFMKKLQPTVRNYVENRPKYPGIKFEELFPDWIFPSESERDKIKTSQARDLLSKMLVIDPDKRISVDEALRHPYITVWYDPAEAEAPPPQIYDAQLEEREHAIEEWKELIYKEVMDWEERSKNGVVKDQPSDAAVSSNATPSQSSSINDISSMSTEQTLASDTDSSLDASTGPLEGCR
Description: as §1

TBK1 = target: T1, TBK1 (Homo sapiens, UniProt Q9UHD2)
T1 sequence (Q9UHD2 1-729): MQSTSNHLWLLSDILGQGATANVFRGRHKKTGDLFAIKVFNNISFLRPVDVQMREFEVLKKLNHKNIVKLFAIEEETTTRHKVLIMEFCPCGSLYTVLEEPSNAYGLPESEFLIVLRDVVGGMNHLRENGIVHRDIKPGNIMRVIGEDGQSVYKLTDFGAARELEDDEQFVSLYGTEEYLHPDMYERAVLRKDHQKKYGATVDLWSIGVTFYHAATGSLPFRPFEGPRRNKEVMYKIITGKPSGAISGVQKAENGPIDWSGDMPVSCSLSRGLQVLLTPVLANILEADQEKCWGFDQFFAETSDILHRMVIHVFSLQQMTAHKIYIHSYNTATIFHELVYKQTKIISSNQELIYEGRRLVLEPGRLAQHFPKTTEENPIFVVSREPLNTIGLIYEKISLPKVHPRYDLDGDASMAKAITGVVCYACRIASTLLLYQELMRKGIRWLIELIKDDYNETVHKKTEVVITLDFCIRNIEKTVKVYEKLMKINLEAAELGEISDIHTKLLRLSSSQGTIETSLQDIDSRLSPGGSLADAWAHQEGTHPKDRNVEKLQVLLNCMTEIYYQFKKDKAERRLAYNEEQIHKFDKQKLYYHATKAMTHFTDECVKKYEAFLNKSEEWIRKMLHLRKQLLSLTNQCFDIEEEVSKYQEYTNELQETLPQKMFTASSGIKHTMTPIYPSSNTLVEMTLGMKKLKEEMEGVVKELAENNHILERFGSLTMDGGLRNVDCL
Description: as §1

IKKe = target: T2, IKKe (Homo sapiens, UniProt Q14164)
T2 sequence (Q14164 1-716): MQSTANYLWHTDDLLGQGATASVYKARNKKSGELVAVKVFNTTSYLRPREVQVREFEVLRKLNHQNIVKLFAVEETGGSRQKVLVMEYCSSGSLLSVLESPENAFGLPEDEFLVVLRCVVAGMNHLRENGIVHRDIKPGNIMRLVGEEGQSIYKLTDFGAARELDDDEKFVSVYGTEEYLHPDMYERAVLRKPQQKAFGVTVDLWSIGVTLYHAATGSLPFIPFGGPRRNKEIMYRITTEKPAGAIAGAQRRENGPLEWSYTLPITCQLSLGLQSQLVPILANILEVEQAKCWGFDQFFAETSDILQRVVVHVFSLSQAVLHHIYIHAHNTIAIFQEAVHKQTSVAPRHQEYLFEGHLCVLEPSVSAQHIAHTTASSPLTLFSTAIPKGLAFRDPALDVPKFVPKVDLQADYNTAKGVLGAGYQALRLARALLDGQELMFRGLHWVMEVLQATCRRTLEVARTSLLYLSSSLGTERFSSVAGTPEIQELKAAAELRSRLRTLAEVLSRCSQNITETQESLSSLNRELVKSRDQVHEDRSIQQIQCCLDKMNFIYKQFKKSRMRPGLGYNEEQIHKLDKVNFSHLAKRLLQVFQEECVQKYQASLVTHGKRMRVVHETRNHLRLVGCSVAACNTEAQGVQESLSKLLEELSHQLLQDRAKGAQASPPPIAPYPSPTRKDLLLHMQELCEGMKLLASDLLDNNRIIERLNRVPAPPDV
Description: as §1

Chain of MAP3K1 (Q13233 whole entry): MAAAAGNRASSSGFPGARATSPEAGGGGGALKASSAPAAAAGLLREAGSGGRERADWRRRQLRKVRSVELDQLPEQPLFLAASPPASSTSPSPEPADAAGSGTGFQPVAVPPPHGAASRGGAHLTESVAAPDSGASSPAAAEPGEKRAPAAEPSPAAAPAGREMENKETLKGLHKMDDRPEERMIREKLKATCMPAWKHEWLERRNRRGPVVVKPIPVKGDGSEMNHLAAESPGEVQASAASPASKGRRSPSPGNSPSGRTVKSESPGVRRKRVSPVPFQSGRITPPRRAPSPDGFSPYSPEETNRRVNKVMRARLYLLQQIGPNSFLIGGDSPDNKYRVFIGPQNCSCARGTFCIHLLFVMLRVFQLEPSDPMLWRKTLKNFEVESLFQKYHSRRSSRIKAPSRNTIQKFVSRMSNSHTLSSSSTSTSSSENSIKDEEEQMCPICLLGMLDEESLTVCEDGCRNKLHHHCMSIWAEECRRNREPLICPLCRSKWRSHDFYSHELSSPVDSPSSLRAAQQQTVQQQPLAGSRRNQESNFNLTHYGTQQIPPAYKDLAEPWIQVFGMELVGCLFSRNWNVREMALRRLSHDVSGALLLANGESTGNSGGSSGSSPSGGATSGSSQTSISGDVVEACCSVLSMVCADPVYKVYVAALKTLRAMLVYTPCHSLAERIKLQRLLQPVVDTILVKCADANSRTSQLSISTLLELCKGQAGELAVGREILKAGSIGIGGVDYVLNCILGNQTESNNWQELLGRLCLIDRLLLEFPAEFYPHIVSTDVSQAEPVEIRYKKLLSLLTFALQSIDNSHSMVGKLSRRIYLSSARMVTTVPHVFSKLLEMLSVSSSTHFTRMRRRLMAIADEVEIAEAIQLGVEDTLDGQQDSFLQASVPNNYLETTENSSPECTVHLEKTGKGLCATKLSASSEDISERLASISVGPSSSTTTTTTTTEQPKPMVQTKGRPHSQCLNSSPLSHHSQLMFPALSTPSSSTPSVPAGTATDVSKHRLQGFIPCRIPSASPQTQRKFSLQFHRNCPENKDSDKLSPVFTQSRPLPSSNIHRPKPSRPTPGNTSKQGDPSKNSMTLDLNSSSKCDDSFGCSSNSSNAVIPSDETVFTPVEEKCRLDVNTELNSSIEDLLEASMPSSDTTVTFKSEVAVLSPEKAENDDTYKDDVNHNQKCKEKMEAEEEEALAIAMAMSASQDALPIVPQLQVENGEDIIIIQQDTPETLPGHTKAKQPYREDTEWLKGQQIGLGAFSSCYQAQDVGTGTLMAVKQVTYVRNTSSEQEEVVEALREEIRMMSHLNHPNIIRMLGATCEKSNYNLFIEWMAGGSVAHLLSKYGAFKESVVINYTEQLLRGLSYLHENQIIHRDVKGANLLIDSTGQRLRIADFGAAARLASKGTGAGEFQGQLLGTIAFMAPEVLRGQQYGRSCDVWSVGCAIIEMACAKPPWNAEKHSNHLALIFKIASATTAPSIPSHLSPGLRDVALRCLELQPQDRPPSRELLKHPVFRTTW

## CS(=O)(=O)Nc1ccccc1Nc1nc(Nc2cccc(OCCN)c2)ncc1Cl [CZC31326, N-(2-(2-(3-(2-aminoethoxy)phenylamino)-5-chloropyrimidin-4-ylamino)phenyl)methanesulfonamide]
MAP3K1
  inhibition at 10 µM: 87%
JNK2
  Competition %: 87.8%
TBK1
  inhibition at 10 µM: 94.8%
IKKe
  inhibition at 10 µM: 91.4%
